From patent US10457677B2 (priority 2015, dated 2019)
Counter-ions that a name gives are not always drawn. Like-named read-outs stand apart in the source and are kept apart here.

Assays:
[1] = system: phosphorylation of CHK2 (phospho-Thr68) in HCT116 cells; assay: Cellular pCHK2 assay: bleomycin-induced phosphorylation of CHK2 (phospho-Thr68), immunofluorescence high-content analysis; assay type: cell-based, human; conditions: Homo sapiens, HCT-116, 4 h, read-out: IC50 (pCHK2)
How it was run: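 HCT116 cells in DMEM with 10% FCS, incubated overnight at 37° C, then given compounds (1 nM to 30 μM, 0.5% DMSO) together with 10 μM bleomycin. Phospho-Thr68 CHK2 immunostained and imaged by high-content imager; nuclei with pCHK2 above background counted, cell count from propidium iodide DNA stain.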

[2] = target: PI3K p110β/p85α (human) (Homo sapiens (Human), UniProt P42338); assay: PI3K p110β/p85α (human), non-radioactive assay (HTRF); assay type: biochemical; conditions: read-out: IC50 (PI3Kbeta)
Sequence of PI3K p110β/p85α (human) (P42338 whole entry): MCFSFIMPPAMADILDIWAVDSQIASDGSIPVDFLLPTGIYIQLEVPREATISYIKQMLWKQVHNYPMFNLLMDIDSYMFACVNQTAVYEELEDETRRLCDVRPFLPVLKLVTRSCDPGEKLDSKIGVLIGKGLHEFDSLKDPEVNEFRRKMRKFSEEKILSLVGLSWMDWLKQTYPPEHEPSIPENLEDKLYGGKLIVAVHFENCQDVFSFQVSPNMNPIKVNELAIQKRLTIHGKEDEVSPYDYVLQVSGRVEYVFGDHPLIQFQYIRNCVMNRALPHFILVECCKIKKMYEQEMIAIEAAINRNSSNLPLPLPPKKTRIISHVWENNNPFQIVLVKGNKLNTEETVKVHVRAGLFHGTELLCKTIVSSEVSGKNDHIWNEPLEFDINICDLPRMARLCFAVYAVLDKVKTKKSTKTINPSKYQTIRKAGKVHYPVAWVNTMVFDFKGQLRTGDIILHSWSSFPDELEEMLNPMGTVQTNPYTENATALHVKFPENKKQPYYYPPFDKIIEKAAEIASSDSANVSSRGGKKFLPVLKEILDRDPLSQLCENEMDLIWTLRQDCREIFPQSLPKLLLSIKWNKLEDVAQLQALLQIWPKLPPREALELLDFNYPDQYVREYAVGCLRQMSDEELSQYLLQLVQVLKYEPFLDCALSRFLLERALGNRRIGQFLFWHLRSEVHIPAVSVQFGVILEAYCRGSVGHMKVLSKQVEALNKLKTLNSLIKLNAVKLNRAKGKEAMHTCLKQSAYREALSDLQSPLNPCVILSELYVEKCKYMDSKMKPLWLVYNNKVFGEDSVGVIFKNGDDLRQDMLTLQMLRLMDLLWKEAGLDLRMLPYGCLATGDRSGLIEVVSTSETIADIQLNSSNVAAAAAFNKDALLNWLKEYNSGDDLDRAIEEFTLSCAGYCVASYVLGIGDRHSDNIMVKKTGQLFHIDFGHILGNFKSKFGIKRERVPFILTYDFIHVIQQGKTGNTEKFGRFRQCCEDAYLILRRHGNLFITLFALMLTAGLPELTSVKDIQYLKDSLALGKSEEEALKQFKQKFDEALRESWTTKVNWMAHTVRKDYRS
Sequence of PI3K p110β/p85α (human) (P27986 whole entry partner): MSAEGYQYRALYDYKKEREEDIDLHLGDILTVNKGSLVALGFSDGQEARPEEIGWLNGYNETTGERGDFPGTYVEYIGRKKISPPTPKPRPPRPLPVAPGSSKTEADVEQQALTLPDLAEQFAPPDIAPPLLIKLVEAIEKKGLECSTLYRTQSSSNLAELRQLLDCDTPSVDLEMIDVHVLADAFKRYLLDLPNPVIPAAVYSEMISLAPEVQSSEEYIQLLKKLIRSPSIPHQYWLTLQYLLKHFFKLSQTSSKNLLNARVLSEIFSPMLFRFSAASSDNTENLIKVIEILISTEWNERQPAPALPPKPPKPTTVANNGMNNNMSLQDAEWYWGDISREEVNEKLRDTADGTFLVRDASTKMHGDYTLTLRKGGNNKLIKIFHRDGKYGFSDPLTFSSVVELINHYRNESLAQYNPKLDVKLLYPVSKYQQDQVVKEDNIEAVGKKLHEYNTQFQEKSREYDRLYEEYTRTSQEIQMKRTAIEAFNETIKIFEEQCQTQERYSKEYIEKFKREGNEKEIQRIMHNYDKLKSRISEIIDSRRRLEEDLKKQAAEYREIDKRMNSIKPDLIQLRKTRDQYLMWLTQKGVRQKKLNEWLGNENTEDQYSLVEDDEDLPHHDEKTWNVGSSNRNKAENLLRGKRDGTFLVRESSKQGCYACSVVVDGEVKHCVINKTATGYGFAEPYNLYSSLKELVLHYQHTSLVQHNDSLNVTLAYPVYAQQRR
Method: PI3K p110β/p85α (Human), Non-radioactive Assay
PI3K p110β/p85α (human) was incubated in an assay buffer comprising 10 μM phosphati-dylinositol 4,5-bisphosphate and MgATP (concentration as necessary). The reaction was initiated by addition of MgATP solution. After an incubation time of 30 min at room temperature, the reaction was stopped by addition of a solution consisting of EDTA and biotinylated phosphatidylinositol 3,4,5-trisphosphate. Finally, the detection buffer, consisting of a europium-labelled anti-GST monoclonal antibody, a GST-labelled GRP1 PH domain and streptavidin allophycocyanin, was added. The plate was read out via homogeneous time-resolved fluorescence (HTRF) and the corresponding signals were evaluated via the formula HTRF=10000×(Em665nm/Em620nm).

[3] = target: PI3K (p120γ) (human) (Homo sapiens (Human), UniProt P48736); assay: PI3K (p120γ) (human), non-radioactive assay (HTRF); assay type: biochemical; conditions: read-out: IC50 (PI3Kgamma)
How it was run: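 Enzyme was run with 10 μM phosphatidylinositol 4,5-bisphosphate, starting the reaction with MgATP at an unspecified level, for 30 min at room temperature. The stop used EDTA plus biotinylated PIP3, and detection used Eu-anti-GST, GST-GRP1 PH domain and streptavidin-APC. Signal was taken as HTRF = 10000×(Em665nm/Em620nm).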

[4] = target: PI3K p110δ/p85α (human) (Homo sapiens (Human), UniProt O00329); assay: PI3K p110δ/p85α (human), non-radioactive assay (HTRF); assay type: biochemical; conditions: read-out: IC50 (PI3Kdelta)
[5] = target: purified human recombinant ATM (ataxia telangiectasia mutated), full length (Homo sapiens (Human), UniProt Q13315); assay: ATM kinase assay - determination of ATM inhibition (IC50 ATM), TR-FRET; assay type: biochemical
Sequence of purified human recombinant ATM (ataxia telangiectasia mutated), full length (Q13315 whole entry, change not shown): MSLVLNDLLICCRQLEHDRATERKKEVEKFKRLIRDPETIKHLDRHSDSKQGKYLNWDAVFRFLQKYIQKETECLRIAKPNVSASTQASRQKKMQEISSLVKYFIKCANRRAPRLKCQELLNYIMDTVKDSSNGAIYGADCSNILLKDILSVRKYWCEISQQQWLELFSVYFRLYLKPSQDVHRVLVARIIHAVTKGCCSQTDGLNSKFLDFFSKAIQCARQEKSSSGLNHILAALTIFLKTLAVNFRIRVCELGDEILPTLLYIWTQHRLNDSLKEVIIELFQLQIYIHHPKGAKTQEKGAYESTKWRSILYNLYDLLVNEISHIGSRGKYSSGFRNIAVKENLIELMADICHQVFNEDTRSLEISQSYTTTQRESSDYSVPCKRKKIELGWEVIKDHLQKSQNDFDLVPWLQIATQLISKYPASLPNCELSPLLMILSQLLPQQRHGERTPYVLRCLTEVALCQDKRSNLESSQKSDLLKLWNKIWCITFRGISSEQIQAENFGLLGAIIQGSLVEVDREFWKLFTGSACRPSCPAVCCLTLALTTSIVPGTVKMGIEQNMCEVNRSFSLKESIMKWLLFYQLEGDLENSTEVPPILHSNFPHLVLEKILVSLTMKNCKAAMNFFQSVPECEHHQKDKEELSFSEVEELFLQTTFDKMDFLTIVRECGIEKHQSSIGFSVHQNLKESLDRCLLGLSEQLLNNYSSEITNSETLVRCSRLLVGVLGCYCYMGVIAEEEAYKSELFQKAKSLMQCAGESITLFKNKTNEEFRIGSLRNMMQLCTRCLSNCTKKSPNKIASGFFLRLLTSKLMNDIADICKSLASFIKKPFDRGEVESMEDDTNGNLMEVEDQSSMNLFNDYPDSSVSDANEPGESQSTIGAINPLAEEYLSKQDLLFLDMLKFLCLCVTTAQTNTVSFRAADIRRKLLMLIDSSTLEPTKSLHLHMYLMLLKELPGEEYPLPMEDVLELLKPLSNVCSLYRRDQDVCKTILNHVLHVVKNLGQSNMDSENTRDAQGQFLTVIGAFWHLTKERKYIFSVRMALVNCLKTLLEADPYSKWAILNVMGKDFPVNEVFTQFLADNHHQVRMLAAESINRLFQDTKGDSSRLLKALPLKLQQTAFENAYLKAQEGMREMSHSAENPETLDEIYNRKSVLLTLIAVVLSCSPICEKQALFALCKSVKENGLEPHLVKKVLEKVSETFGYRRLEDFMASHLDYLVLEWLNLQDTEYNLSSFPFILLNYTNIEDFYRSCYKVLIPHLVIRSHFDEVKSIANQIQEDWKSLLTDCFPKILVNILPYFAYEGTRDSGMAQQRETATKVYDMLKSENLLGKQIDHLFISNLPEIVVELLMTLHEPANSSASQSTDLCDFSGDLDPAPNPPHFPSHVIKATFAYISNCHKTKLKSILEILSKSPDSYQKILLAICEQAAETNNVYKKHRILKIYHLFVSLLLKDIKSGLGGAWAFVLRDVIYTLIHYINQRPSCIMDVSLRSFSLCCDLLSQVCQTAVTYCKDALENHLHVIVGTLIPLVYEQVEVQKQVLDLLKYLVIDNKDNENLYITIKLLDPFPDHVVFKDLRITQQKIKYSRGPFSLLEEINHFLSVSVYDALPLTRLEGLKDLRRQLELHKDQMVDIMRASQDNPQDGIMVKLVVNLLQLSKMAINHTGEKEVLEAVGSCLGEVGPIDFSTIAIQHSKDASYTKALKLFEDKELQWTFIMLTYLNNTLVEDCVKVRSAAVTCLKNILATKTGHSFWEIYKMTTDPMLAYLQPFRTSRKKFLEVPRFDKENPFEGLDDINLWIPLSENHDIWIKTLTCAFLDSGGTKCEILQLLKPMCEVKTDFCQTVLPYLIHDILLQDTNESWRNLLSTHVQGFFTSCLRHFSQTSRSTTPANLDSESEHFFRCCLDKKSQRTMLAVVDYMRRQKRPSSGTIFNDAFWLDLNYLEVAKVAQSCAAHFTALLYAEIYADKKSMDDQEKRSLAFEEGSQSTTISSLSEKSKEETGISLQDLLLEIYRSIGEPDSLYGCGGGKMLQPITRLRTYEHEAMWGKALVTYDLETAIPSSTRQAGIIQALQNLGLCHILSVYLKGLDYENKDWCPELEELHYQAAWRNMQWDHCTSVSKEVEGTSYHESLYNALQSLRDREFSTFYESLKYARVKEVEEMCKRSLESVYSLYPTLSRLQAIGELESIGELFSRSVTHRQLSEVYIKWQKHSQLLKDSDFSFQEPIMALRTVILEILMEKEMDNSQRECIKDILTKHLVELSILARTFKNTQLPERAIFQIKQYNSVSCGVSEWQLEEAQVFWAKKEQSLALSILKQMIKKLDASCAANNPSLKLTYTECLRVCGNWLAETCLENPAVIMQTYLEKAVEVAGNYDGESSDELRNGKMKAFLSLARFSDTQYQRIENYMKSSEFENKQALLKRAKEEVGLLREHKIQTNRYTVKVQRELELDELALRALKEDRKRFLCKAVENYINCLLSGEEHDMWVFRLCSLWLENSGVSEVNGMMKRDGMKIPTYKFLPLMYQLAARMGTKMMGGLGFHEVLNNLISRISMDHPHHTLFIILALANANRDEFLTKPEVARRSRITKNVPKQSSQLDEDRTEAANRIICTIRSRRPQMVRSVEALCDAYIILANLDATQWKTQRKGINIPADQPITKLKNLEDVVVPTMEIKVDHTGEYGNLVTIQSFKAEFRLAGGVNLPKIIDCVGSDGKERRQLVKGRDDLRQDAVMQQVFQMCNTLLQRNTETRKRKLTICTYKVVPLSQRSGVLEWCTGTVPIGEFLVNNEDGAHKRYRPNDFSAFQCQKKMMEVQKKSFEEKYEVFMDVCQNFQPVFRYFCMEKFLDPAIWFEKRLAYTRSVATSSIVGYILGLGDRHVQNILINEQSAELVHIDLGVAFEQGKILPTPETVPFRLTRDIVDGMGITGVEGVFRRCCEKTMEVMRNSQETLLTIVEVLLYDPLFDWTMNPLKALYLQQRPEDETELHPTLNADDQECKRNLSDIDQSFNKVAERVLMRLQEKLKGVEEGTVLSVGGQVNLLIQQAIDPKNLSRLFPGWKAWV
How it was run: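 Full-length enzyme, expressed in a mammalian cell line, pre-incubated 15 min with inhibitor in 25 mM HEPES pH 8.0, 10 mM Mg(CH3COO)2, 1 mM MnCl2, 0,1% BSA, 0,01% Brij 35, 5 mM DTT. Full-length cmyc-p53 (Sf21-expressed) and ATP then added, 30-35 min at 22° C. EDTA stop; p53 S15 phosphorylation read by TR-FRET antibodies.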

[6] = target: PI3K p110α/p85α (human) (Homo sapiens (Human), UniProt P42336); assay: PI3K p110α/p85α (human), non-radioactive assay (HTRF); assay type: biochemical; conditions: read-out: IC50 (PI3Kalpha)
[7] = target: mTOR (human) (Homo sapiens (Human), UniProt P42345); assay: mTOR (human) kinase assay, [γ-33P-ATP] filter assay; assay type: biochemical
How it was run: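 Radiometric filter assay: enzyme in 50 mM HEPES pH 7.5, 1 mM EGTA, 0.01% Tween 20, 3 mM MnCl2, 2 mg/ml substrate with [γ-33P-ATP], started with MgATP. Incubated 40 min at room temperature, stopped with 3% phosphoric acid; incorporation measured on P30 filtermat by scintillation counting.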

SMILES	IC50 [1]	IC50 [2]	IC50 [3]	IC50 [4]	IC50 [5]	IC50 ([5]; 10 μM ATP, substrate p53)	IC50 [6]	IC50 [7]
CCn1cc(-c2cc3c(cc2OC)ncc2c3n(-c3ncccc3F)c(=O)n2C)cn1 [Compound Example 24, 8-(1-Ethyl-1H-pyrazol-4-yl)-1-(3-fluoropyridin-2-yl)-7-methoxy-3-methyl-1,3-dihydroimidazo[4,5-c] quinolin-2-one]	< 0.2 µM	> 30 µM	> 30 µM	> 30 µM	< 0.001 µM	< 0.001 µM	> 30 µM	> 30 µM
CCc1cncc(F)c1-n1c(=O)n(C)c2cnc3cc(OC)c(-c4cnn(CC)c4)cc3c21 [Compound Example 25, 1-(3-Ethyl-5-fluoropyridin-4-yl)-8-(1-ethyl-1H-pyrazol-4-yl)-7-methoxy-3-methyl-1,3-dihydroimidazo[4,5-c] quinolin-2-one]	< 0.2 µM	> 30 µM	> 30 µM	> 30 µM	< 0.001 µM	< 0.001 µM	> 30 µM	> 30 µM
COc1cc2ncc3c(c2cc1-c1cnn(C)c1)n(-c1ncc(C)cc1F)c(=O)n3C [Compound Example 27, 1-(3-Fluoro-5-methylpyridin-2-yl)-7-methoxy-3-methyl-8-(1-methyl-1H-pyrazol-4-yl)-1,3-dihydroimidazo[4,5-c] quinolin-2-one]	< 0.2 µM	> 30 µM	> 30 µM	> 30 µM	< 0.001 µM	< 0.001 µM	> 30 µM	> 30 µM
COc1cc2ncc3c(c2cc1-c1cnn(C)c1)n(-c1ccncc1OC)c(=O)n3C [Compound Example 28, 7-Methoxy-1-(3-methoxy-pyridin-4-yl)-3-methyl-8-(1-methyl-1H-pyrazol-4-yl)-1,3-dihydroimidazo[4,5-c] quinolin-2-one]	< 0.2 µM	> 30 µM	> 30 µM	> 30 µM	< 0.01 µM	< 0.01 µM	> 30 µM	> 30 µM
COc1cc2ncc3c(c2cc1-c1cc(C)[nH]n1)n(-c1ncccc1F)c(=O)n3C [Compound Example 29, 1-(3-Fluoropyridin-2-yl)-7-methoxy-3-methyl-8-(5-methyl-1H-pyrazol-3-yl)-1,3-dihydroimidazo[4,5-c] quinolin-2-one]	< 0.2 µM	> 30 µM	> 30 µM	> 30 µM	< 0.01 µM	< 0.01 µM	> 30 µM	> 30 µM
COc1cc2ncc3c(c2cc1-c1cn[nH]c1)n(-c1csc(C)n1)c(=O)n3C [Compound Example 30, 7-Methoxy-3-methyl-1-(2-methylthiazol-4-yl)-8-(1H-pyrazol-4-yl)-1,3-dihydro-imidazo[4,5-c]quinolin-2-one]	< 0.2 µM	> 30 µM	> 30 µM	> 30 µM	< 0.01 µM	< 0.01 µM	> 30 µM	> 30 µM
COc1cc2ncc3c(c2cc1-c1cnn(C)c1)n(-c1ncncc1F)c(=O)n3C [Compound Example 31, 1-(5-Fluoropyrimidin-4-yl)-7-methoxy-3-methyl-8-(1-methyl-1H-pyrazol-4-yl)-1H,2H,3H-imidazo[4,5-c] quinolin-2-one hydrochloride]	< 0.2 µM	> 30 µM	> 30 µM	> 30 µM	< 0.01 µM	< 0.01 µM	> 30 µM	> 30 µM
CCn1cc(-c2cc3c(cc2OC)ncc2c3n(-c3ccncc3F)c(=O)n2C)cn1 [Compound Example 33, 8-(1-Ethyl-1H-pyrazol-4-yl)-1-(3-fluoropyridin-4-yl)-7-methoxy-3-methyl-1,3-dihydroimidazo[4,5-c] quinolin-2-one]	< 0.2 µM	> 30 µM	> 30 µM	> 30 µM	< 0.001 µM	< 0.001 µM	> 30 µM	> 30 µM
CCn1cc(-c2cc3c(cc2OC)ncc2c3n(-c3ccncc3C)c(=O)n2C)cn1 [Compound Example 34, 8-(1-Ethyl-1H-pyrazol-4-yl)-7-methoxy-3-methyl-1-(3-methylpyridin-4-yl)-1,3-dihydroimidazo[4,5-c] quinolin-2-one]	< 0.2 µM	> 30 µM	> 30 µM	> 30 µM	< 0.01 µM	< 0.01 µM	> 30 µM	> 30 µM
COc1cc2ncc3c(c2cc1-c1cnn(C)c1)n(-c1ccncc1F)c(=O)n3C [Compound Example 35, 1-(3-Fluoropyridin-4-yl)-7-methoxy-3-methyl-8-(1-methyl-1H-pyrazol-4-yl)-1,3-dihydroimidazo[4,5-c] quinolin-2-one]	< 0.2 µM	> 30 µM	> 30 µM	> 30 µM	< 0.01 µM	< 0.01 µM	> 30 µM	> 30 µM
COc1cc2ncc3c(c2cc1-c1cnn(C)c1)n(-c1ncc(F)cn1)c(=O)n3C [Compound Example 36, 1-(5-Fluoropyrimidin-2-yl)-7-methoxy-3-methyl-8-(1-methyl-1H-pyrazol-4-yl)-1,3-dihydroimidazo[4,5-c] quinolin-2-one]	< 0.2 µM	> 30 µM	> 30 µM	> 30 µM	< 0.001 µM	< 0.01 µM	> 30 µM	> 30 µM
COc1cc2ncc3c(c2cc1-c1cn[nH]c1)n(-c1cnn(C2CCOCC2)c1)c(=O)n3C [Compound Example 37, 7-Methoxy-3-methyl-8-(1H-pyrazol-4-yl)-1-[1-(tetrahydropyran-4-yl)-1H-pyrazol-4-yl]-1,3-dihydro-imidazo[4,5-c] quinolin-2-one]	< 0.2 µM	> 30 µM	> 30 µM	> 30 µM	< 0.01 µM	< 0.01 µM	> 30 µM	> 10 µM
CCn1cc(-c2cc3c(cc2OC)ncc2c3n(-c3c(C)cncc3F)c(=O)n2C)cn1 [Compound Example 38, 8-(1-Ethyl-1H-pyrazol-4-yl)-1-(3-fluoro-5-methylpyridin-4-yl)-7-methoxy-3-methyl-1,3-dihydroimidazo[4,5-c] quinolin-2-one]	0.2 to 1 µM	> 30 µM	> 30 µM	> 30 µM	< 0.001 µM	< 0.001 µM	> 30 µM	> 30 µM
COc1cc2ncc3c(c2cc1-c1cnn(C)c1)n(-c1ccncc1C)c(=O)n3C [Compound Example 40, 7-Methoxy-3-methyl-8-(1-methyl-1H-pyrazol-4-yl)-1-(3-methylpyridin-4-yl)-1,3-dihydroimidazo[4,5-c] quinolin-2-one]	0.2 to 1 µM	> 30 µM	> 30 µM	> 30 µM	< 0.01 µM	< 0.01 µM	> 30 µM	> 30 µM
COc1cc2ncc3c(c2cc1-c1cn[nH]c1)n(-c1ccnn1C)c(=O)n3C [Compound Example 41, 7-Methoxy-3-methyl-1-(2-methyl-2H-pyrazol-3-yl)-8-(1H-pyrazol-4-yl)-1,3-dihydroimidazo[4,5-c] quinolin-2-one]	0.2 to 1 µM	> 30 µM	> 30 µM	> 30 µM	< 0.01 µM	< 0.01 µM	> 30 µM	> 10 µM
COc1cc2ncc3c(c2cc1-c1cnn(C)c1)n(-c1c[nH]nc1C)c(=O)n3C [Compound Example 43, 7-Methoxy-3-methyl-1-(3-methyl-1H-pyrazol-4-yl)-8-(1-methyl-1H-pyrazol-4-yl)-1,3-dihydroimidazo[4,5-c]-quinolin-2-one]	0.2 to 1 µM	> 30 µM	> 30 µM	> 30 µM	< 0.001 µM	< 0.001 µM	> 30 µM	> 30 µM
